These results are taken from patent US8865744B1, “(Cyano-dimethyl-methyl)-isoxazoles and -[1,3,4]thiadiazoles” (Boehringer Ingelheim International GmbH, priority 2013, dated 2014).

The target of one experiment is T1, human CB2R (Homo sapiens, UniProt P34972).
T1 construct: host or cells: CHO cells
Description: CB2 cAMP (Assay 1): In vitro testing of CB2 potency. It counts as cell-based.

The target of the next experiment is T2, human CB1R (Homo sapiens, UniProt P21554).
T2 construct: host or cells: CHO cells
Description: CB1 cAMP (Assay 2): In vitro testing of CB1 potency. It counts as cell-based.

Each structure is given as a SMILES string. Like-named read-outs stand apart in the source and are kept apart here.

T1 sequence (P34972 whole entry): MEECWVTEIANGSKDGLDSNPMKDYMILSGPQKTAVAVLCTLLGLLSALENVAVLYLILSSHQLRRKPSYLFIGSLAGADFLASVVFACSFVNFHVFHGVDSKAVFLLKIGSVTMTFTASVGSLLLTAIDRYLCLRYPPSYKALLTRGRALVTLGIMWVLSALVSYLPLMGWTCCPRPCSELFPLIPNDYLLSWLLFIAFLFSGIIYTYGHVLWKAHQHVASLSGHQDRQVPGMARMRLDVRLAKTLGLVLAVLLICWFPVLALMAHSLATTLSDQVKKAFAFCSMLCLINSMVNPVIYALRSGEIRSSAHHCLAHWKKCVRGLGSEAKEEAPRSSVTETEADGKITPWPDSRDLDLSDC
T2 sequence (P21554 whole entry): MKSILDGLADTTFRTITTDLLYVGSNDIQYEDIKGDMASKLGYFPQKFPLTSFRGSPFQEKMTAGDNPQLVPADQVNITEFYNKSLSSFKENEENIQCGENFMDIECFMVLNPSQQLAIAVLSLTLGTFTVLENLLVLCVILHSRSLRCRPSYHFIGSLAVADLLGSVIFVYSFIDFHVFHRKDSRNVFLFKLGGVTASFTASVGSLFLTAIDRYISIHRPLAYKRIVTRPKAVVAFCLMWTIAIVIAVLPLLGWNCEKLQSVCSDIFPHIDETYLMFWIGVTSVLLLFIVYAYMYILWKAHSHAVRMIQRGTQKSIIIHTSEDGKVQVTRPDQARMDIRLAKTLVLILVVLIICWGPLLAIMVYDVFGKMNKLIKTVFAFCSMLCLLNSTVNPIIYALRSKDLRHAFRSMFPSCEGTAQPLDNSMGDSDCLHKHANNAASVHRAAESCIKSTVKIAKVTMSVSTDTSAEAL

Turning to `CC(C)(CO)c1cc(NC(=O)C(C)(C)S(=O)(=O)CC2CCOCC2)on1` [Example 1 in WO2010036630], the EC50 at human CB2R (read-out: CB2 EC50) came out at 88 nM. For the compound `CC(C)(C#N)c1cc(NC(=O)C(C)(C)S(=O)(=O)CCCC(F)(F)F)on1` [Example 1, N-[3-(Cyano-dimethyl-methyl)-isoxazol-5-yl]-2-methyl-2-(4,4,4-trifluoro-butane-1-sulfonyl)-propionamide], the figures for the half-maximal effective concentration (EC50) at human CB1R and on human CB2R were 104000 nM and 18 nM, respectively. Take `CC(C)(CO)c1cc(NC(=O)C(C)(C)S(=O)(=O)C2CCOCC2)on1` [Example 2 in WO2010036630]: a half-maximal effect on human CB1R (EC50) was put at 150000 nM. Turning to `CC(C)(C#N)c1cc(NC(=O)C(C)(C)S(=O)(=O)CC2CCOCC2)on1` [Example 2, N-[3-(Cyano-dimethyl-methyl)-isoxazol-5-yl]-2-methyl-2-(tetrahydro-pyran-4-ylmethanesulfonyl)-propionamide], the concentration for a half-maximal effect (EC50) at human CB1R was above 200000 nM; at human CB2R it was 104 nM.

For the compound `CC(C)(C#N)c1cc(NC(=O)C(C)(C)S(=O)(=O)C2CCOCC2)on1` [Example 3], the EC50 was above 200000 nM at human CB1R (read-out: CB1 EC50) and 8 nM at human CB2R (read-out: CB2 EC50). Turning to `CN(CC1CCOCC1)C(C)(C)C(=O)Nc1cc(C(C)(C)C#N)no1` [Example 4], the EC50 stood at 39400 nM at human CB1R (read-out: CB1 EC50) and 0.36 nM on human CB2R (read-out: CB2 EC50). For `CN(C1CCN(S(C)(=O)=O)CC1)C(C)(C)C(=O)Nc1cc(C(C)(C)C#N)no1` [Example 5], the EC50 on human CB1R (read-out: CB1 EC50) is 2500 nM; on human CB2R (read-out: CB2 EC50) it was 0.23 nM. In the case of `CN(CC1CCOCC1)C(C)(C)C(=O)Nc1cc(C(C)(C)CO)no1` [Example 7 in WO2010147792], the half-maximal effective concentration (EC50) at human CB1R (read-out: CB1 EC50) was 8080 nM; on human CB2R (read-out: CB2 EC50) it was 0.68 nM. For the compound `CN(CC1CCOCC1)C(C)(C)C(=O)Nc1nnc(C(C)(C)C#N)s1` [Example 7, N-[5-(Cyano-dimethyl-methyl)-[1,3,4]thiadiazol-2-yl]-2-methyl-2-[methyl(tetrahydro-pyran-4-ylmethyl)-amino]-propionamide], the EC50 was above 200000 nM on human CB1R and 25 nM on human CB2R.

Regarding `CN(C1CCN(S(C)(=O)=O)CC1)C(C)(C)C(=O)Nc1nnc(C(C)(C)C#N)s1` [Example 8], the EC50 at human CB1R stood at 69000 nM; at human CB2R, 4.3 nM. As for `COCC(C)(C)c1cc(NC(=O)C(C)(C)S(=O)(=O)CC2CCOCC2)on1` [Example 17 in WO2010036630], the EC50 turned out to be 8600 nM on human CB1R and 30 nM on human CB2R. Take `CN(CC1CCOCC1)C(C)(C)C(=O)Nc1nnc(C(C)(C)CO)s1` [Example 30 in WO2010147792]: the EC50 at human CB1R (read-out: CB1 EC50) was 120000 nM; on human CB2R (read-out: CB2 EC50), 5.4 nM. In the case of `COCC(C)(C)c1cc(NC(=O)C(C)(C)N(C)CC2CCOCC2)on1` [Example 46 in WO2010147792], the 50% effective concentration (EC50) at human CB1R (read-out: CB1 EC50) was found to be 923 nM; on human CB2R (read-out: CB2 EC50), 0.27 nM. For `CN(C1CCN(S(C)(=O)=O)CC1)C(C)(C)C(=O)Nc1cc(C(C)(C)CO)no1` [Example 47 in WO2010147792], the EC50 on human CB1R (read-out: CB1 EC50) worked out at 3100 nM; at human CB2R (read-out: CB2 EC50), 0.85 nM. In the case of `CC(C)(O)c1cc(NC(=O)C(C)(C)S(=O)(=O)C2CCOCC2)on1` [Example 133 WO2010036630], the figures for the concentration giving a half-maximal response (EC50) at human CB1R and at human CB2R were above 200000 nM and 140 nM, respectively.
